Test results as given in US4923986A, “Derivatives of physiologically active substance K-252” (Kyowa Hakko Kogyo Co., Ltd., priority 1988, dated 1990).
Converted amounts (≈) assume the structure as drawn.

Tested on: HeLaS3 cells
Assay: HeLaS3 cell growth inhibition test
Type: cell-based
Details: Homo sapiens, HeLa S3; HeLaS3 cells, contact for 72 hours; read-out: cell growth inhibitory activity IC50, HeLaS3
Procedure: (§1) Compound (I) was examined for C-kinase inhibitory activity and cell growth inhibitory activity by the following method.
(§2) MCF 7 cells (4.5×10^4 cells/ml) prepared in RPMI 1640 medium containing 10% fetal calf serum, 10 μg/ml insulin and 10^-8 M estradiol are put into wells of a 96-well microtiter plate in the amount of 0.1 ml per each well. After incubation at 37° C. overnight in CO2 -incubator, 0.05 ml each of a test sample appropriately diluted with the culture medium is added to each well. In the case of contact for 72 hours, the cells are further cultured in CO2 -incubator, and then the culture supernatant is removed and the wells are washed once with PBS(-). Thereafter, 0.1 ml of fresh medium is added to each well, followed by culturing at 37° C. for 72 hours in CO2 -incubator. After the culture supernatant is removed, 0.1 ml of the culture medium containing 0.02% Neutral Red is added to each well, followed by culturing at 37° C. for one hour in CO2 -incubator, whereby the cells are stained. Then, the culture supernatant is removed and the cells are washed once with physiological saline. The pigment is extracted with 0.001N HCl/30% ethanol and absorption is measured at 550 nm with a microplate reader. By comparing the absorption of intact cells with those of the cells treated with a test compound in known concentrations, the concentration of the test compound at which growth of the cells is inhibited 50% is calculated as IC50.
(3) HeLaS3 cell growth inhibition test:
HeLaS3 cells (3×10^4 cells/ml) prepared in MEM medium containing 10% fetal calf serum and 2 mM glutamine are put into wells of a 96-well microtiter plate in the amount of 0.1 ml per each well.
Thereafter, the test is carried out in the same manner as in (1).

Row | Compound | IC50 [µg/mL]
1 | CC12OC(CC1(O)CNCC(O)CO)n1c3ccccc3c3c4c(c5c6ccccc6n2c5c31)CNC4=O (centres unmarked) [Compound 43] | 0.19 (≈ 0.371 µM)
2 | CSCC1(O)CC2OC1(C)n1c3ccccc3c3c4c(c5c6ccccc6n2c5c31)C(=O)NC4 (centres unmarked) [Compound 45] | 0.55 (≈ 1.17 µM)
3 | C[S+]([O-])CC1(O)CC2OC1(C)n1c3ccccc3c3c4c(c5c6ccccc6n2c5c31)C(=O)NC4 (centres unmarked) [Compound 46] | > 1
4 | C[C@]12O[C@H](C[C@]1(O)C=NNC1=NCCN1)n1c3ccccc3c3c4c(c5c6ccccc6n2c5c31)CNC4=O [Compound 51] | 0.23 (≈ 0.443 µM)
5 | CC12OC(CC1(O)C=NNC(=N)N)n1c3ccccc3c3c4c(c5c6ccccc6n2c5c31)CNC4=O (centres unmarked) [Compound 52] | 0.46 (≈ 0.932 µM)
6 | CC12OC(CC13COC(=S)O3)n1c3ccccc3c3c4c(c5c6ccccc6n2c5c31)CNC4=O (centres unmarked) [Compound 54] | 0.28 (≈ 0.581 µM)
7 | CC12OC(CC13COS(=O)O3)n1c3ccccc3c3c4c(c5c6ccccc6n2c5c31)CNC4=O (centres unmarked) [Compound 55] | 0.14 (≈ 0.288 µM)
8 | CC1=NCC2(CC3OC2(C)n2c4ccccc4c4c5c(c6c7ccccc7n3c6c42)C(=O)NC5)O1 (centres unmarked) [Compound 56] | 0.07 (≈ 0.151 µM)
9 | CC12OC(CC13CNC(=O)O3)n1c3ccccc3c3c4c(c5c6ccccc6n2c5c31)CNC4=O (centres unmarked) [Compound 57] | 0.04 (≈ 0.0861 µM)
10 | CC12OC(CC13CNC(=S)O3)n1c3ccccc3c3c4c(c5c6ccccc6n2c5c31)CNC4=O (centres unmarked) [Compound 58] | 0.28 (≈ 0.583 µM)
11 | CN1CC2(CC3OC2(C)n2c4ccccc4c4c5c(c6c7ccccc7n3c6c42)C(=O)NC5)OC1=O (centres unmarked) [Compound 59] | 0.17 (≈ 0.355 µM)
12 | CC12OC(CC13CN(CC=NNC(=N)N)C(=O)O3)n1c3ccccc3c3c4c(c5c6ccccc6n2c5c31)CNC4=O (centres unmarked) [Compound 63] | 0.2 (≈ 0.355 µM)
13 | CC12OC(CC1(O)CO)n1c3ccccc3c3c4c(c5c6ccccc6n2c5c31)C(=O)N(N)C4=O (centres unmarked) [Compound 72] | 0.24 (≈ 0.512 µM)

Tested on: COLO320DM cells
Assay: COLO320DM cell growth inhibition test
Type: cell-based
Details: Homo sapiens, COLO 320DM; COLO320DM cells, cells counted with a microcell counter; read-out: cell growth inhibitory activity IC50, COLO320DM
Procedure: as §2, with “After” for “MCF 7 cells (4.5×10^4 cells/ml) prepared in RPMI 1640 medium containing 10% fetal calf serum, 10 μg/ml insulin and 10^-8 M estradiol are put into wells of a 96-well microtiter plate in the amount of 0.1 ml per each well. After”, “reader.” for “reader. By comparing the absorption of intact cells with those of the cells treated with a test compound in known concentrations, the concentration of the test compound at which growth of the cells is inhibited 50% is calculated as IC50.”
(4) COLO320DM cell growth inhibition test:
Thereafter, the test is carried out in the same manner as in (1) except that the cells are counted with a microcell counter.

Row | Compound | IC50 [µg/mL]
14 | CC12OC(CC1(O)CNCC(O)CO)n1c3ccccc3c3c4c(c5c6ccccc6n2c5c31)CNC4=O (centres unmarked) [Compound 43] | > 1
15 | C[C@]12O[C@H](C[C@]1(O)C=NNC1=NCCN1)n1c3ccccc3c3c4c(c5c6ccccc6n2c5c31)CNC4=O [Compound 51] | 1 (≈ 1.92 µM)
16 | CC12OC(CC1(O)C=NNC(=N)N)n1c3ccccc3c3c4c(c5c6ccccc6n2c5c31)CNC4=O (centres unmarked) [Compound 52] | > 1
17 | CC12OC(CC13COC(=S)O3)n1c3ccccc3c3c4c(c5c6ccccc6n2c5c31)CNC4=O (centres unmarked) [Compound 54] | 0.08 (≈ 0.166 µM)
18 | CC1=NCC2(CC3OC2(C)n2c4ccccc4c4c5c(c6c7ccccc7n3c6c42)C(=O)NC5)O1 (centres unmarked) [Compound 56] | 1 (≈ 2.16 µM)
19 | CC12OC(CC13CNC(=O)O3)n1c3ccccc3c3c4c(c5c6ccccc6n2c5c31)CNC4=O (centres unmarked) [Compound 57] | 0.37 (≈ 0.797 µM)
20 | CN1CC2(CC3OC2(C)n2c4ccccc4c4c5c(c6c7ccccc7n3c6c42)C(=O)NC5)OC1=O (centres unmarked) [Compound 59] | 0.39 (≈ 0.815 µM)
21 | CC12OC(CC13CN(CC=NNC(=N)N)C(=O)O3)n1c3ccccc3c3c4c(c5c6ccccc6n2c5c31)CNC4=O (centres unmarked) [Compound 63] | 0.64 (≈ 1.14 µM)
22 | CC12OC(CC1(O)CO)n1c3ccccc3c3c4c(c5c6ccccc6n2c5c31)C(=O)N(N)C4=O (centres unmarked) [Compound 72] | 0.37 (≈ 0.79 µM)

Tested on: PC-10 cells
Assay: PC-10 cell growth inhibition test
Type: cell-based
Details: Homo sapiens, PC10; PC-10 cells, contact for 72 hours; read-out: cell growth inhibitory activity IC50, PC-10
Procedure: as §1, §2
(2) PC-10 cell growth inhibition test:
PC-10 cells (5×10^4 cells/ml) prepared in MEM medium containing 10% fetal calf serum and 2 mM glutamine are put into wells of a 96-well microtiter plate in the amount of 0.1 ml per each well.
Thereafter, the test is carried out in the same manner as in the MCF 7 cell growth inhibition test.

Row | Compound | IC50 [µg/mL]
23 | CSCC1(O)CC2OC1(C)n1c3ccccc3c3c4c(c5c6ccccc6n2c5c31)C(=O)NC4 (centres unmarked) [Compound 45] | > 1
24 | C[S+]([O-])CC1(O)CC2OC1(C)n1c3ccccc3c3c4c(c5c6ccccc6n2c5c31)C(=O)NC4 (centres unmarked) [Compound 46] | 0.27 (≈ 0.556 µM)
25 | CC12OC(CC13COC(=S)O3)n1c3ccccc3c3c4c(c5c6ccccc6n2c5c31)CNC4=O (centres unmarked) [Compound 54] | 0.11 (≈ 0.228 µM)
26 | CC12OC(CC13COS(=O)O3)n1c3ccccc3c3c4c(c5c6ccccc6n2c5c31)CNC4=O (centres unmarked) [Compound 55] | 0.64 (≈ 1.32 µM)
27 | CC12OC(CC13CNC(=O)O3)n1c3ccccc3c3c4c(c5c6ccccc6n2c5c31)CNC4=O (centres unmarked) [Compound 57] | 0.1 (≈ 0.215 µM)
28 | CC12OC(CC13CNC(=S)O3)n1c3ccccc3c3c4c(c5c6ccccc6n2c5c31)CNC4=O (centres unmarked) [Compound 58] | 0.69 (≈ 1.44 µM)

Tested on: MCF 7 cells
Assay: MCF 7 cell growth inhibition test
Type: cell-based
Details: Homo sapiens, MCF7; MCF-7 cells, contact for 72 hours; read-out: cell growth inhibitory activity IC50, MCF-7
Procedure: as §1
(1) MCF 7 cell growth inhibition test:
as §2

Row | Compound | IC50 [µg/mL]
29 | CC12OC(CC1(O)CNCC(O)CO)n1c3ccccc3c3c4c(c5c6ccccc6n2c5c31)CNC4=O (centres unmarked) [Compound 43] | 0.52 (≈ 1.01 µM)
30 | C[C@]12O[C@H](C[C@]1(O)C=NNC1=NCCN1)n1c3ccccc3c3c4c(c5c6ccccc6n2c5c31)CNC4=O [Compound 51] | 0.5 (≈ 0.962 µM)
31 | CC12OC(CC1(O)C=NNC(=N)N)n1c3ccccc3c3c4c(c5c6ccccc6n2c5c31)CNC4=O (centres unmarked) [Compound 52] | 0.4 (≈ 0.81 µM)
32 | CC12OC(CC13COC(=S)O3)n1c3ccccc3c3c4c(c5c6ccccc6n2c5c31)CNC4=O (centres unmarked) [Compound 54] | 1 (≈ 2.08 µM)
33 | CC1=NCC2(CC3OC2(C)n2c4ccccc4c4c5c(c6c7ccccc7n3c6c42)C(=O)NC5)O1 (centres unmarked) [Compound 56] | 0.4 (≈ 0.865 µM)
34 | CC12OC(CC13CNC(=O)O3)n1c3ccccc3c3c4c(c5c6ccccc6n2c5c31)CNC4=O (centres unmarked) [Compound 57] | 0.15 (≈ 0.323 µM)
35 | CN1CC2(CC3OC2(C)n2c4ccccc4c4c5c(c6c7ccccc7n3c6c42)C(=O)NC5)OC1=O (centres unmarked) [Compound 59] | 1 (≈ 2.09 µM)
36 | CC12OC(CC13CN(CC=NNC(=N)N)C(=O)O3)n1c3ccccc3c3c4c(c5c6ccccc6n2c5c31)CNC4=O (centres unmarked) [Compound 63] | 0.45 (≈ 0.8 µM)
37 | CC12OC(CC1(O)CO)n1c3ccccc3c3c4c(c5c6ccccc6n2c5c31)C(=O)N(N)C4=O (centres unmarked) [Compound 72] | 0.2 (≈ 0.427 µM)

Biological target: C-kinase (protein kinase C)
Assay: C-Kinase inhibitory activity test
Type: biochemical
Details: enzyme activity inhibited 50%

Row | Compound | C-Kinase inhibitory activity IC50 [µg/mL]
38 | CC12OC(CC1(O)CNCC(O)CO)n1c3ccccc3c3c4c(c5c6ccccc6n2c5c31)CNC4=O (centres unmarked) [Compound 43] | 0.02
39 | CSCC1(O)CC2OC1(C)n1c3ccccc3c3c4c(c5c6ccccc6n2c5c31)C(=O)NC4 (centres unmarked) [Compound 45] | 0.11
40 | C[S+]([O-])CC1(O)CC2OC1(C)n1c3ccccc3c3c4c(c5c6ccccc6n2c5c31)C(=O)NC4 (centres unmarked) [Compound 46] | 0.06
41 | C[C@]12O[C@H](C[C@]1(O)C=NNC1=NCCN1)n1c3ccccc3c3c4c(c5c6ccccc6n2c5c31)CNC4=O [Compound 51] | 0.031
42 | CC12OC(CC1(O)C=NNC(=N)N)n1c3ccccc3c3c4c(c5c6ccccc6n2c5c31)CNC4=O (centres unmarked) [Compound 52] | 0.021
43 | CC12OC(CC13COC(=S)O3)n1c3ccccc3c3c4c(c5c6ccccc6n2c5c31)CNC4=O (centres unmarked) [Compound 54] | 0.015
44 | CC12OC(CC13COS(=O)O3)n1c3ccccc3c3c4c(c5c6ccccc6n2c5c31)CNC4=O (centres unmarked) [Compound 55] | 0.038
45 | CC1=NCC2(CC3OC2(C)n2c4ccccc4c4c5c(c6c7ccccc7n3c6c42)C(=O)NC5)O1 (centres unmarked) [Compound 56] | 0.006
46 | CC12OC(CC13CNC(=O)O3)n1c3ccccc3c3c4c(c5c6ccccc6n2c5c31)CNC4=O (centres unmarked) [Compound 57] | 0.02
47 | CC12OC(CC13CNC(=S)O3)n1c3ccccc3c3c4c(c5c6ccccc6n2c5c31)CNC4=O (centres unmarked) [Compound 58] | 0.017
48 | CN1CC2(CC3OC2(C)n2c4ccccc4c4c5c(c6c7ccccc7n3c6c42)C(=O)NC5)OC1=O (centres unmarked) [Compound 59] | 0.046
49 | CC12OC(CC13CN(CC=NNC(=N)N)C(=O)O3)n1c3ccccc3c3c4c(c5c6ccccc6n2c5c31)CNC4=O (centres unmarked) [Compound 63] | 0.053
50 | CC12OC(CC1(O)CO)n1c3ccccc3c3c4c(c5c6ccccc6n2c5c31)C(=O)N(N)C4=O (centres unmarked) [Compound 72] | 0.22
